Where two headings read alike, the source gives them in different places.
Tests used:
human CB2 receptors = biological target: T1, human CB2 receptors (Homo sapiens, UniProt P34972); test: functional cAMP assay, CHO cells expressing human CB2; type: cell-based
T1 construct: expressed in transfected cells; host or cells: CHO cells
Procedure: (§1) CHO cells expressing human CB1 or CB2 receptors are seeded 17-24 hours prior to the experiment 50.000 cells per well in a black 96 well plate with flat clear bottom (Corning Costar #3904) in DMEM (Invitrogen No. 31331), 1×HT supplement, with 10% fetal calf serum and incubated at 5% CO2 and 37° C. in a humidified incubator. The growth medium was exchanged with Krebs Ringer Bicarbonate buffer with 1 mM IBMX and incubated at 30° C. for 30 min. Compounds were added to a final assay volume of 100 μl and incubated for 30 min at 30° C. Using the cAMP-Nano-TRF detection kit the assay (Roche Diagnostics) was stopped by the addition of 50 μl lysis reagent (Tris, NaCl, 1.5% Triton X100, 2.5% NP40, 10% NaN3) and 50 μl detection solutions (20 μM mAb Alexa700-cAMP 1:1, and 48 μM Ruthenium-2-AHA-cAMP) and shaken for 2 h at room temperature. The time-resolved energy transfer is measured by a TRF reader (Evotec Technologies GmbH), equipped with a ND:YAG laser as excitation source. The plate is measured twice with the excitation at 355 nm and at the emission with a delay of 100 ns and a gate of 100 ns, total exposure time 10 s at 730 (bandwidth 30 nm) or 645 nm (bandwidth 75 nm), respectively. The FRET signal is calculated as follows: FRET=T730-Alexa730-P(T645-B645) with P=Ru730-B730/Ru645-B645, where T730 is the test well measured at 730 nM, T645 is the test well measured at 645 nm, B730 and B645 are the buffer controls at 730 nm and 645 nm, respectively. cAMP content is determined from the function of a standard curve spanning from 10 μM to 0.13 nM cAMP.
(§2) EC50 values were determined using Activity Base analysis (ID Business Solution, Limited). The EC50 values for a wide range of cannabinoid agonists generated from this assay were in agreement with the values published in the scientific literature.

human CB1 receptors = biological target: T2, human CB1 receptors (Homo sapiens, UniProt P21554); test: functional cAMP assay, CHO cells expressing human CB1; type: cell-based
T2 construct: expressed in transfected cells; host or cells: CHO cells
T2 sequence (P21554 whole entry): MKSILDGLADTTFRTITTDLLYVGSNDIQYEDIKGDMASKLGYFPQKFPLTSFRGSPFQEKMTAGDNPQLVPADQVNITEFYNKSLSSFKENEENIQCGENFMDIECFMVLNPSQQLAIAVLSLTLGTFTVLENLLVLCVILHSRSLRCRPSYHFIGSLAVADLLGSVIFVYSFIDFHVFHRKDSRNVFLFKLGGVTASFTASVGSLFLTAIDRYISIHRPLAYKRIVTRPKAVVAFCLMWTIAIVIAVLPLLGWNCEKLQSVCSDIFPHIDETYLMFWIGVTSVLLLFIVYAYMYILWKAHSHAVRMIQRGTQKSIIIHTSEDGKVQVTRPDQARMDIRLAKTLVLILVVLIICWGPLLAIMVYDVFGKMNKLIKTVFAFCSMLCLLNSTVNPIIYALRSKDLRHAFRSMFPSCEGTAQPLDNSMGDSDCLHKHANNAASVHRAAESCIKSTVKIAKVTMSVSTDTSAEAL
Procedure: as §1, §2

[1] = functional cAMP assay, CHO cells expressing human CB2, read-out: Human CB2 EC50

T1 sequence (P34972 whole entry): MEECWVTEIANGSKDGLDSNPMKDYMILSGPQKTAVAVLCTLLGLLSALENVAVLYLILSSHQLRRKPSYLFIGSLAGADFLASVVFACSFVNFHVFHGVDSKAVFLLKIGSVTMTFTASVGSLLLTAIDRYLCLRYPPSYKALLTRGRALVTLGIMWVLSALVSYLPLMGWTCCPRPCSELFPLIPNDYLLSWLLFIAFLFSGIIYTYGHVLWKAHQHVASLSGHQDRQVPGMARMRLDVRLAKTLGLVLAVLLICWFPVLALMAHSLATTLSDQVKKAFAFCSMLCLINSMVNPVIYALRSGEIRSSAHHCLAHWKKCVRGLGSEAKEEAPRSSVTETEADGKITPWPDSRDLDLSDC

SMILES | EC50 (human CB2 receptors) [nM] | EC50 (human CB1 receptors) [nM] | EC50 (human CB2 receptors; [1]) [nM]
CC(C)(C)c1noc(-c2ccc(C3CC3)c(OCC3CC3)c2)n1 [Example 14, 3-tert-Butyl-5-[4-cyclopropyl-3-(cyclopropylmethoxy)phenyl]-1,2,4-oxadiazole] | 23.3 | > 10000 | –
CC(C)(C)c1nc(-c2ccc(C3CC3)c(OCC(F)F)c2)no1 [Example 24, 5-tert-Butyl-3-[4-cyclopropyl-3-(2,2-difluoroethoxy)phenyl]-1,2,4-oxadiazole] | 15.5 | > 10000 | –
CC(C)Oc1cc(C(=O)N2CC(F)(F)C[C@H]2C(N)=O)ccc1C1CC1 [Example 48, 1-{4-Cyclopropyl-3-[(propan-2-yl)oxy]benzoyl}-4,4-difluoro-L-prolinamide] | – | > 10000 | 377
Cc1nc([C@@](C)(CS(C)(=O)=O)NC(=O)c2ccc(C3CC3)c(OCC3CC3)c2)no1 [Example 20, 4-Cyclopropyl-3-(cyclopropylmethoxy)-N-[(2S)-1-(methanesulfonyl)-2-(5-methyl-1,2,4-oxadiazol-3-yl)propan-2-yl]benzamide] | 31.3 | > 10000 | –
CC(C)(CO)NC(=O)c1ccc(C2CC2)c(OCC2CC2)c1 [Example 5, 4-Cyclopropyl-3-(cyclopropylmethoxy)-N-(1-hydroxy-2-methylpropan-2-yl)benzamide] | – | > 10000 | 130
Cc1nc([C@](C)(CC2CC2)NC(=O)c2ccc(C3CC3)c(OC(C)C)c2)no1 (single isomer, unassigned) [Example 38, 4-Cyclopropyl-N-[(2S)-1-cyclopropyl-2-(5-methyl-1,2,4-oxadiazol-3-yl)propan-2-yl]-3-[(propan-2-yl)oxy]benzamide or enantiomer] | 26.6 | > 10000 | –
CC(C)(C)c1noc(-c2ccc(C3CC3)c(N3CCC(F)(F)C3)c2)n1 [Example 47, 3-tert-Butyl-5-[4-cyclopropyl-3-(3,3-difluoropyrrolidin-1-yl)phenyl]-1,2,4-oxadiazole] | 5.33 | > 10000 | –
Cc1nc([C@](C)(CC2CC2)NC(=O)c2ccc(C3CC3)c(-c3ccnn3C)c2)no1 [Example 59, 4-Cyclopropyl-N-[(2S)-1-cyclopropyl-2-(5-methyl-1,2,4-oxadiazol-3-yl)propan-2-yl]-3-(1-methyl-1H-pyrazol-5-yl)benzamide] | – | > 10000 | 282
Cc1nc([C@@](C)(CS(C)(=O)=O)NC(=O)c2ccc(C3CC3)c(OCC(F)(F)F)c2)no1 [Example 29, 4-Cyclopropyl-N-[(2S)-1-(methanesulfonyl)-2-(5-methyl-1,2,4-oxadiazol-3-yl)propan-2-yl]-3-(2,2,2-trifluoroethoxy)benzamide] | 149 | > 10000 | –
CC(C)(NC(=O)c1ccc(C2CC2)c(OCC2CC2)c1)c1nccs1 [Example 6, 4-Cyclopropyl-3-(cyclopropylmethoxy)-N-[2-(1,3-thiazol-2-yl)propan-2-yl]benzamide] | 26 | 539 | –

— patent publication US11339120B2, “Phenyl derivatives as cannabinoid receptor 2 agonists” (priority 2015, dated 2022)
